Experiments:
[1] = Triggering the chemiluminescence of hydroxy-substituted dioxetanes with base; settings: for base-induced chemiluminescence: base-induced decomposition, room temperature (2b: potassium t-butoxide in o-xylene, 25° C.)
Protocol: (§1) A solution of the dioxetane in a suitable solvent (e.g. o-xylene) was placed in the reaction vial as described above. The vial was placed in the sample holder which was maintained at a temperature such that thermal decomposition of the dioxetane was negligible. Instrument parameters were selected as above and data collection started. A solution of the releasing agent (e.g. base or fluoride) preferably in the reaction solvent was injected by syringe into the rapidly stirred dioxetane solution. The volume of releasing agent added was generally less than 5% of the total volume so that temperature fluctuation of the sample during the time course of the decay was minimal. The pseudo-first order decay was monitored for at least three half-lives.
1. Triggering the Chemiluminescence of Hydroxy-Substituted Dioxetanes with Base: Potassium tert-butoxide induced decomposition of 2b. […].

[2] = Thermal decomposition of dioxetanes monitored by decay of chemiluminescence (activation parameters in xylene); format: physicochemical
Protocol: Rates of dioxetane decomposition were monitored by the decay of chemiluminescence of aerated solutions. A cylindrical Pyrex vial equipped with magnet stir bar was filled with 3-4 mL of the reaction solvent, sealed with a Teflon-lined screw cap and placed in the thermostatted sample block of the chemiluminescence-measuring apparatus (Black Box). Temperature control was provided by an external circulating water bath. Appropriate values for the instrument gain and optical slit size were selected. […]. The vial was sealed with a Teflon-lined screw cap to prevent evaporation when high temperatures were used. Measurement of the signal was begun by opening the shutter. The chemiluminescent decay was generally recorded for at least three half-lives. Calculation of the first-order rate constant, k, from the In(Intensity) vs. time data was performed by a computer program utilizing a standard least-squares treatment. The correlation coefficient, r, was typically at least 0.999 and varied less than 5% between replicate samples. The observed rate was not measurably concentration dependent.
Activation parameters for decomposition of the dioxetanes were calculated from plots of In k vs. 1/T (Arrhenius eq.) or In k/t vs. 1/T (Eyring eq.) by a standard least-squares linear regression analysis.
Activation Energies for Decomposition of Dioxetanes 2 in Xylene.

[3] = for fluoride induced chemiluminescence in polar aprotic solvents: polar aprotic solvents such as acetonitrile
Protocol: as §1
2. Triggering the Chemiluminescence of Silyloxy-Substituted Dioxetanes with Fluorde Ion: Fluoride ion induced decomposition of 2c. […]. […]. A spectrum of the chemiluminescence obtained from the fluoride triggering of 2c in 1:1 aqueous/2-methoxyethanol is shown in FIG. 1 with the solid line. The fluorescence of the cleavage product (methyl 6-hydroxy-2-naphthoate) from the dioxetane is also shown with the dashed line for comparison.

[4] = Triggering properties of further prepared dioxetanes (general statement)
[5] = tested on: Aryl esterase (carboxylic ester hydrolase) from porcine liver; assay: Enzymatic triggering of chemiluminescence with aryl esterase; format: biochemical; settings: for effect of added competing esterase substrate on light intensity: […] solution added at maximum emission of 2e, pH 7.6 phosphate buffer, 37° C.
Protocol: (§2) A secondary stock solution of the acetate-protected dioxetane 2e was made by evaporating an aliquot of the methylene chloride stock equivalent to 10 micromoles of dioxetane and dissolving in 5.0 mL of 2-methoxyethanol to give a final concentration of 0.002M. […] Buffer solutions prepared in distilled water were 0.05M phosphate pH 7.6 and 8.0, 0.02M Tris (tris-hydroxymethylaminomethane maleate) pH 7.6, and pH 9.0 phosphate/borate buffer. Aryl esterase (also called carboxylic ester hydrolase (P-5221)) from porcine liver was purchased from Sigma Chemical Co. as a suspension of 11 mg of protein per mL in 3.2M (NH4)2 SO4 solution pH 8.0. Each mg of protein is equivalent to 260 Units, where 1 Unit is defined as the amount which will hydrolyze 1 micromole of ethyl butyrate in 1 minute at pH 8.0, 25° C. […] Injection of 1 μL of (0.26 units) of aryl esterase to the stirred solution caused a chemiluminescent signal to appear. The intensity reached a maximum at about 3 minutes and decayed over a 30 minute period.
3.) When distilled water was substituted for the Tris buffer, no chemiluminescence signal was observed, but on adding Tris buffer to this solution light emission similar to that above was produced. […] Addition of untreated enzyme preparation to this solution again produced light. […] The emission could be totally extinguished by addition of sufficient SDS. The decrease in light emission is not due to photophysical quenching of the excited state since thermal decomposition in the same solvent system at elevated temperatures results in readily detectable chemiluminescence.
This type of behavior explains the effect of the addition of the known esterase substrates α-naphthyl acetate and β-naphthyl acetate. […] A solution of 25 μL of the dioxetane stock (0.002M) in 3 mL of pH 7.6 phosphate buffer maintained at 37° C. was treated with 5 μL of the enzyme to initiate the chemiluminescence. At the point of maximum emission […] of 0.011M solution of either α- or β-naphthyl acetate were added.

[6] = target: T1, Acetylcholinesterase from human erythrocytes (Homo sapiens, UniProt P22303); assay: Enzymatic triggering of chemiluminescence with acetylcholinesterase; format: biochemical; settings: 0.05M phosphate buffer, pH 8.0, 37.0° C.
T1 construct: purchased Sigma Chemical Co. C-3389; host or cells: human erythrocytes
Text: Acetylcholinesterase, an enzyme of considerable biological significance, hydrolyzes acetylcholine to choline and acetic acid under physiological conditions. It was of interest to determine whether this enzyme would also initiate the chemiluminescent decomposition of the acetyl-protected dioxetane 2e by removal of the acetyl group. Acetylcholinesterase (C-3389) from human erythrocytes was purchased from Sigma Chemical Co. as a lyophilized powder containing phosphate buffer salts. […]. Addition of more dioxetane during this period generated more light.

[7] = format: physicochemical; settings: 0.002M in 2-methoxyethanol, stored at 0° C.
Protocol: as §2
Stability of Enzyme and Dioxetane to Reaction Conditions. Many dioxetanes are known to be destroyed via a non-luminescent pathway by acid catalyzed processes in protic solvents. Similarly, amines are also known to cause the catalytic destruction of dioxetanes via an electron-transfer process. […]

[8] = tested on: alkaline phosphatase from Bovine Intestinal Mucosa; assay: Enzymatic triggering of chemiluminescence with alkaline phosphatase (Type VII-S); format: biochemical; settings: 2-amino-2-methyl-1-propanol buffer pH 10.3, 1.5M, 37° C., 10 μL enzyme suspension
Protocol: A cuvette containing 3 mL of a buffer solution of 2-amino-2-methyl-l-propanol (Sigma Chemical Co., pH=10.3, 1.5M) was placed in the black box at 37° C. A portion (200 μL) of the dioxetane stock solution (6d in CH2 Cl2) was added to this buffer solution. Subsequent addition of 10 μL of an alkaline phosphatase suspension [Sigma, Type VII-S from Bovine Intestinal Mucosa, suspension in 3.2M (NH4)2 SO4 ] gave rise to chemiluminescence over a period of approximately 2-3 min indicating the enzymatic triggering of the dioxetane.

[9] = 25° C.; cited from earlier work
[10] = 1 μL (0.26 units) aryl esterase, pH 7.6 Tris buffer, 25° C.

T1 sequence (P22303 other isoform, or with tags, fused parts or gaps): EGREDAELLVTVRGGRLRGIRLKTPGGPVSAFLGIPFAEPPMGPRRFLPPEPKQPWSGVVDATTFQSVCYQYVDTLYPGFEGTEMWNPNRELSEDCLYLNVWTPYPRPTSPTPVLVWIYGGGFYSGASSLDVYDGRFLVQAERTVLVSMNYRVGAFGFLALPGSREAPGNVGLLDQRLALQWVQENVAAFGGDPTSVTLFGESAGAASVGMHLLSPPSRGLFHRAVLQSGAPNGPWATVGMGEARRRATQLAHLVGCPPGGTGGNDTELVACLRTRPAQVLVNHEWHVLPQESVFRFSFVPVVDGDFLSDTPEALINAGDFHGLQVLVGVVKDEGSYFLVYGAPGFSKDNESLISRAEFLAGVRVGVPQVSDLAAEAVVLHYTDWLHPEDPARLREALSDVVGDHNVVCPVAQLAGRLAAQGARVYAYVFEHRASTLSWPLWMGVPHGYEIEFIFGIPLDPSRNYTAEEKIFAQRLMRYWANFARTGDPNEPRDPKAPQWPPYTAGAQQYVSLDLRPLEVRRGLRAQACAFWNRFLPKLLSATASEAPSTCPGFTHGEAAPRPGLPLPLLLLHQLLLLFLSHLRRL

## COC1(c2ccc3cc(O)ccc3c2)OOC12C1CC3CC(C1)CC2C3 (stereo not shown) [Dioxetane 2b, 4-(6-Hydroxy-2-naphthyl)-4-methoxyspiro[1,2-dioxetane-3,2'-adamantane]]
[1]
  base-induced chemiluminescence: intense blue chemiluminescence
[1]; methanol with KOH as base, or o-xylene with n-BuLi as base
  base-induced chemiluminescence with other bases: bright blue chemiluminescence with similar decay rates

## COC1(c2ccc3cc(O[Si](C)(C)C(C)(C)C)ccc3c2)OOC12C1CC3CC(C1)CC2C3 (stereo not shown) [Dioxetane 2c]
[2]; decomposition in xylene
  Ea (activation energy for decomposition): 27.0
[3]; 10^-4 M dioxetane, 0.01M tetrabutylammonium fluoride in 2-methoxyethanol, room temperature, pseudo-first order, 100 µM
  half-life of chemiluminescence decay, fluoride ion induced: about 20 minutes
[3]; tetrabutylammonium fluoride in 2-methoxyethanol
  fluoride induced chemiluminescence: Blue chemiluminescence was produced

## COC1(c2ccc3cc(O[Si](c4ccccc4)(c4ccccc4)C(C)(C)C)ccc3c2)OOC12C1CC3CC(C1)CC2C3 (stereo not shown) [Dioxetane 2d]
[4]
  triggering properties: triggering properties similar to dioxetanes 2a-c and 2e
[3]
  fluoride induced chemiluminescence in polar aprotic solvents: bright chemiluminescence

## COC1(c2ccc3cc(OC(C)=O)ccc3c2)OOC12C1CC3CC(C1)CC2C3 (stereo not shown) [Dioxetane 2e, 4-(6-Acetoxy-2-naphthyl)-4-methoxyspiro[1,2-dioxetane-3,2'-adamantane]]
[5]; [10]
  period over which chemiluminescence decayed: 30 min
  time at which chemiluminescence intensity reached a maximum: about 3 minutes
[5]; 1 μL enzyme in Tris buffer at 25, 37 and 50° C.
  maximum light intensity IMAX versus temperature: increased with increasing temperature
[5]; 3 mL Tris buffer containing 5 μL of 3 M (NH4)2SO4, no enzyme, 25° C.
  chemiluminescence with enzyme medium only: produced no chemiluminescence
[5]; 150 μL (0.3 μmol) dioxetane stock in 3.0 mL pH 7.6 Tris buffer, 25° C., before enzyme
  chemiluminescence signal without enzyme: no chemiluminescence signal was detected
[5]; enzyme heated to 90° C. in Tris buffer and cooled to 25° C.
  chemiluminescence with denatured enzyme: resulted in no chemiluminescence
[6]
  duration of light emission: 20 s
[2]; aliquot injected into 3 mL of o-xylene at 95° C.
  duration of thermal chemiluminescence: persisted for several hours
[7]
  stability of stock solution on storage: stable indefinitely

## Oc1ccc2c(c1)C1(OOC13C1CC4CC(C1)CC3C4)c1ccccc1-2 (stereo not shown) [Dioxetane 4a]
[1]
  base-induced chemiluminescence: produced chemiluminescence at room temperature
[4]
  triggering properties: triggering properties similar to dioxetanes 2a-c and 2e

## CC(C)(C)[Si](C)(C)Oc1ccc2c(c1)C1(OOC13C1CC4CC(C1)CC3C4)c1ccccc1-2 (stereo not shown) [Dioxetane 4b, Dispiro[adamantane-2,3'-[1,2]dioxetane-4',9"-(2-tert-butyldimethylsilyloxy-9-fluorene)]]
[3]
  fluoride induced chemiluminescence in polar aprotic solvents: bright chemiluminescence

## Oc1ccc2c(c1)Oc1ccccc1C21OOC12C1CC3CC(C1)CC2C3 (stereo not shown) [Dioxetane 6a]
[1]
  base-induced chemiluminescence: produced chemiluminescence at room temperature
[4]
  triggering properties: triggering properties similar to dioxetanes 2a-c and 2e

## CC(C)(C)[Si](C)(C)Oc1ccc2c(c1)Oc1ccccc1C21OOC12C1CC3CC(C1)CC2C3 (stereo not shown) [Dioxetane 6b]
[4]
  triggering properties: triggering properties similar to dioxetanes 2a-c and 2e
[3]
  fluoride induced chemiluminescence in polar aprotic solvents: bright chemiluminescence

## CC(=O)Oc1ccc2c(c1)Oc1ccccc1C21OOC12C1CC3CC(C1)CC2C3 (stereo not shown) [Dioxetane 6c]
[4]
  triggering properties: triggering properties similar to dioxetanes 2a-c and 2e

## O=P(O)(O)Oc1ccc2c(c1)Oc1ccccc1C21OOC12C1CC3CC(C1)CC2C3 (stereo not shown) [Dioxetane 6d, Dispiro[adamantane-2,3'-[1,2]dioxetane-4',9"-(3-phosphate-9H-xanthene]]
[8]
  period of chemiluminescence after enzyme addition: 2 to 3 min

## COC1(c2cccc(O)c2)OOC12C1CC3CC(C1)CC2C3 (stereo not shown) [Dioxetane 8a]
[1]
  base-induced chemiluminescence: produced chemiluminescence at room temperature

## COC1(c2cccc(O[Si](C)(C)C(C)(C)C)c2)OOC12C1CC3CC(C1)CC2C3 (stereo not shown) [Dioxetane 8b, 4-(3-tert-Butyldimethylsilyloxyphenyl)-4-methoxyspiro[1,2-dioxetane-3,2'-adamantane]]
[3]
  fluoride induced chemiluminescence in polar aprotic solvents: bright chemiluminescence

## Oc1ccc(C23OCCOC2(c2ccccc2)OO3)cc1 (stereo not shown) [deprotonated dioxetane (X=O^-)]
[9]
  decomposition rate relative to protonated form (X=OH): 5.7×10^6 times faster

## CCCCCCCCCCCCOS(=O)(=O)[O-].[Na+] [sodium lauryl sulfate (SDS), sodium lauryl sulfate, reference compound]
[5]; added at maximum emission of 2e, Tris buffer, 1.5 μL enzyme
  effect of enzyme inhibitor on light emission: irreversible decrease in the intensity

## CC(=O)Oc1cccc2ccccc12 [α-naphthyl acetate, reference compound]
[5]
  effect of added competing esterase substrate on light intensity: rapid decrease in light intensity

## CC(=O)Oc1ccc2ccccc2c1 [β-naphthyl acetate, reference compound]
[5]
  effect of added competing esterase substrate on light intensity: rapid decrease in light intensity
